From US11571459B2, “Methods for treating cancer using PS-targeting antibodies with immuno-oncology agents” (ONCXERNA THERAPEUTICS, INC., priority 2017, dated 2023)

Assays:
[1] = system: previously-treated Stage IIIb/IV non-squamous NSCLC; test: Phase III trial of bavituximab plus docetaxel in NSCLC
Description: (§1) This global, double-blind Phase III trial was initiated in 2012. Selection criteria were for patients with Stage IIIb/IV non-squamous NSCLC who progressed on platinum-doublet chemotherapy (should have progressed on appropriate targeted therapy if known EGFR or ALK mutation), with ECOG PS 0-1 and prior immunotherapy allowed (ECOG is the performance status scale defined by the Eastern Cooperative Oncology Group). […] The primary endpoint was overall survival (OS) and secondary endpoints included objective response rate (Independent Central Review, ICR), progression-free survival (ICR), safety, PK, Quality of Life (LCSS) and exploratory biomarkers, including immune correlates.
(§2) OS was analyzed by VeriStrat subgroups using Kaplan-Meier statistical methods.
(§3) A single cutoff method was first used to assess the patient β2GPI data.
(§4) The initial analyses described above prompted further, extensive analyses of the data in 592 evaluable patients. These analyses used a two cutoff method (Klein & Moeschberger, 2003).
(§5) Archival tissue obtained at the time of diagnosis was requested, but not required, in the Phase III trial of Example X. Formalin-fixed paraffin-embedded (FFPE) slides were stained with antibodies for a panel of lymphoid (or tumor) cell markers, as described in Feng et al., 2015: CD3+, CD8+, FoxP3+, PD-L1+, CD163+ and CK+ (cytokeratin, an epithelial carcinoma marker) using a mutliplex (6-plex) quantitative immunohistochemistry (IHC) assay (OPAL®, PerkinElmer, Waltham, Mass., USA) and using DAPI. The PD-L1 antibody used was the rabbit anti-PD-L1 antibody termed E1L3N® XP® (Cell Signaling Technology, (CST), Danvers, Mass., Catalogue #13684; Mahoney et al., 2015). Baseline PD-L1 expression was retrospectively scored on tumor cells (TC, i.e., CK+) and PD-L1 expressing tumor cells were classified according to their percentage within the total number of tumor cells using established assays and classifications (Fehrenbacher et al., 2016), as follows: TC3≥50%; TC2≥5% and ≤50%; TC1≥1% and <5%; and TC0<1%. Cox regression models for PD-L1 IHC subgroup populations were used for correlation with OS.
(§6) Kaplan-Meier statistical methods and Cox proportional hazard models were utilized to evaluate and contrast the correlation of peripheral (and intratumoral) IFNγ levels with OS based on a data cut from the Phase III trial (Example X) dated Feb.

[2] = system: previously-treated Stage IIIb/IV non-squamous NSCLC; conditions: in vivo
Description: as §1, §2, §3, §4, §5, §6

[3] = system: previously treated non-squamous NSCLC
Description: The primary objective of this study was to compare the ORR (CR+PR) among the treatment arms. Secondary objectives included comparing PFS, DR, OS, safety and PK.
Additional blood draws were performed for these patients during Cycles 1 and 2 at specified time points.
Samples from the NSCLC Phase II trial of Example IX (PPHM 0902) were tested using the functional β2GPI assay of Example XII.

[4] = system: previously untreated locally advanced or metastatic non-squamous NSCLC; test: Phase II (PPHM 1001) paclitaxel/carboplatin with or without bavituximab; assay type: in vivo, human; conditions: functional β2GPI ≥200 μg/mL; bavituximab given with paclitaxel/carboplatin
tumors = conditions: syngeneic and xenogeneic tumor models; cited from earlier work
PS [5] = test: ELISA binding to PS-coated plates; conditions: phospholipid-coated ELISA plates
Description: The 3G4 antibody was produced by immunizing mice with autologous, PS-positive endothelial cells, as reported in Ran et al., 2005. The 3G4 antibody was tested for binding to PS in a standard ELISA in the presence and absence of serum, and was initially characterized as being “serum-independent”, i.e., an antibody that binds to PS in the absence of serum.
In a follow-on study, the binding of the 2aG4 antibody to PS was tested in an ELISA in the presence of varying concentrations of human β2GPI.
These included binding to PS in ELISAs, FACS analyses using PS-positive cells and functional assays in the form of an NFAT surrogate ADCC bioassay (Larson et al., 2013).

[6] = irrespective of the presence of serum; cited from earlier work
[7] = ELISA binding to neutral phospholipids; conditions: standard ELISA
[8] = system: ABAE cells with exposed PS; test: Binding of antibody-β2GPI complexes to PS on cells; assay type: cell-based; conditions: first study
Description: In analyzing the β2GPI levels required for binding of 3G4-β2GPI complexes to PS on cells, the maximum relative binding in a first study occurred at an antibody concentration of 80 nM, which is a β2GPI to antibody ratio of only 0.5.

PS [9] = conditions: in the presence of serum; cited from earlier work
β2GPI = biological target: T1, β2GPI (Homo sapiens, UniProt P02749); test: Antibody binding to β2GPI (domain mapping)
T1 sequence (P02749 20-345): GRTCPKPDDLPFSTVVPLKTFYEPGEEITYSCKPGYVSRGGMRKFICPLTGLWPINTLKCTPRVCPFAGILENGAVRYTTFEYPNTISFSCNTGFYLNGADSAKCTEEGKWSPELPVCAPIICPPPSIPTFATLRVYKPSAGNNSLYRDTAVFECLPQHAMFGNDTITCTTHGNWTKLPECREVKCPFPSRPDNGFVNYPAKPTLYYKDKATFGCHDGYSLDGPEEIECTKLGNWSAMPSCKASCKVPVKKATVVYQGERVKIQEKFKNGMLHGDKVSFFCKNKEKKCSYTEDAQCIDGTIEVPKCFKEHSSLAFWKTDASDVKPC
Description: In summary, it was shown that the 3G4 antibody binds to β2GPI at domain II and that the lipid binding region of β2GPI domain V is required for co-binding of 3G4 (and ch3G4) and β2GPI to PS exposed on cells. […] Accordingly, antibody and β2GPI co-bind to PS exposed on the outer surfaces of membranes, such as occurs on activated endothelial cells, tumor vascular endothelial cells and tumor cells, as well as on virally infected cells.

functional β2GPI = biological target: T2, functional β2GPI (Homo sapiens, UniProt P02749); test: Functional β2GPI assay (PS-coated plate, bavituximab-HRP); assay type: binding; conditions: PS-coated plate, bavituximab-HRP; nicked vs intact β2GPI samples
T2 construct: Samples of β2GPI purified from human plasma and recombinant human β2GPI were both treated with plasmin; from tissue; host or cells: human plasma / serum
T2 sequence (P02749 20-345): T1 sequence (P02749 20-345)
Description: The following particular materials and equipment were used in the assay to generate the Results presented in this example under Sections B1 and B2. Materials: 96-well medium binding flat bottom plates (Greiner BioOne, cat #655001); 96-well non-binding round bottom plates (Costar, cat #3605); hexane (Sigma, cat #32293); PS antigen (Sigma, cat #P6641); ovalbumin (Sigma, cat #A5503); chromogenic substrate, tetramethylbenzidine (TMB), (KPL, cat #50-76-00); 2M H2SO4 (Fisher, Cat #SA818-4); plate covers (Fisher 015-027-11); adhesive plate sealer (VWR 232701); reagent reservoirs (VistaLab Cat #3054-1000). 1.5 mL microcentrifuge tubes, 50 mL conical tubes and 15 mL conical tubes were also utilized.
The Wash Buffer is IX phosphate-buffered saline (PBS) and the Blocking Buffer is 2% Ovalbumin in IX PBS.
The bavituximab antibody was conjugated to horseradish peroxidase (HRP) to prepare a bavituximab-HRP detection agent for use in the assay. The conjugation was performed using EZ-Link® Plus Activated Peroxidase (Thermo Scientific, Cat #31487) following the procedure for conjugating activated peroxidase to an antibody at pH 7.2 provided by the manufacturer. […] This was added to 1 mg of lyophilized EZ-Link Plus activated peroxidase to reconstitute. Immediately following reconstitution, 10 μL of 5M sodium cyanoborohydride solution was added to the reaction and incubated for 1 hour at room temperature. Once incubation was completed, 20 μL of quenching buffer was added and incubated for 15 minutes at room temperature. Conjugated bavituximab-HRP (1 mg/mL) was stored at 4° C. for up to 4 weeks.
The ELISA plates were coated with the PS antigen as follows: 5 μg/mL PS antigen was prepared and diluted into 6 mL of hexane in a fume hood with the blower off. 50 μL of PS solution was added to each well using a 12-channel pipette. The fume hood blower was turned back on and the hexane allowed to evaporate for 30-45 minutes, typically 30 minutes.
The PS-coated ELISA plates were blocked as follows: 100 mL per plate of the Blocking Buffer (2% Ovalbumin in IX PBS) was prepared. 200 μL of Blocking Buffer was added to each well using a 12-channel pipette.
The β2GPI standards for the positive control were obtained from Haematologic Technologies, Inc. (HTI; cat #B2G1-0001-C; 1.0 mg/ml) in a buffer of 0.2 M Glycine, 0.15 M NaCl, pH 7.4. […]

[10] = 70% of targeted OS events reached
[11] = about 85% of targeted OS events
[12] = about 85% of targeted OS events, vs docetaxel alone
[13] = functional β2GPI ≥200 μg/mL, 578 evaluable patients
[14] = functional β2GPI ≥200 μg/mL, 592 evaluable patients

bavituximab plus docetaxel: treatment arm: weekly 3 mg/kg bavituximab in combination with docetaxel
median OS ([1]; 12 months follow-up, about 85% of targeted OS events): 10.5 months
mOS [1, 10]: 10.7 months
median PFS [1, 10]: 4.1 months
mOS ([1]; IFNγ high, no subsequent IO): 9.0 months
HR ([1]; IFNγ high, no subsequent IO, vs docetaxel alone): 1.14
mOS ([1]; IFNγ high, received subsequent IO): 13.9 months
HR ([1]; IFNγ high, received subsequent IO, vs docetaxel alone): 1.0
mOS ([1]; IFNγ low, no subsequent IO): 10.5 months
HR ([1]; IFNγ low, no subsequent IO, vs docetaxel alone): 1.17
mOS ([1]; IFNγ low, received subsequent IO): not reached
HR ([1]; IFNγ low, received subsequent IO, vs docetaxel alone): 0.24
mOS ([1]; VS Good patients (VeriStrat)): 11.2 months
mOS ([1]; VS Poor patients (VeriStrat)): 5.8 months
ORR [1, 11]: 15%
PFS [1, 11]: 4.2 months
HR for OS [1, 12]: 1.06
HR for PFS [1, 12]: 1.02
HR for death ([1]; functional β2GPI 200-240 μg/mL): 0.67
improvement in mOS versus control group ([1]; functional β2GPI 200-240 μg/mL): 5.5 month
mOS ([1]; functional β2GPI 200-240 μg/mL): 13.2 months
HR for death [1, 13]: 0.77
mOS [1, 13]: 11.9 months
HR for death [1, 14]: 0.81
mOS [1, 14]: 11.9 months
mOS ([1]; higher PD-L1 expression (TC1/2/3, ≥1%)): 6.0 months
HR, PD-L1 TC0 versus TC1/2/3 within arm ([1]; in vivo): 0.38
mOS ([1]; negative PD-L1 expression (TC0, <1%)): 11.5 months
HR ([1]; no subsequent IO, vs docetaxel alone): 1.16
mOS ([1]; patients receiving subsequent IO): has yet to be reached
HR ([1]; patients receiving subsequent IO, vs docetaxel alone): 0.46
mOS ([1]; patients who did not receive subsequent IO): 9.2 months
mOS ([1]; pre-treatment serum IFNγ high (≥ median 0.093 μg/mL)): 9.2 months
mOS ([1]; pre-treatment serum IFNγ low (< median 0.093 μg/mL)): 11.9 months
Grade 3 or higher adverse events [2]: 68%
HR for OS versus combined arm ([3]; 3 mg/kg): 0.66
Overall Survival, Median ([3]; ITT, all with docetaxel, Bavituximab arm 3 mg/kg): 11.7 Months
Grade 5 (fatal) events ([3]; bavituximab 3 mg/kg, combined control = placebo or 1 mg/kg bavituximab, all with docetaxel): 5.0%

paclitaxel/carboplatin [reference compound]
mOS [4]: 13.2 months

B1: 3G4: mouse IgG3 monoclonal PS-targeting antibody, hybridoma ATCC PTA 4545 (antibody, V domains shown)
VH: EVQLQQSGPELEKPGASVKLSCKASGYSFTGYNMNWVKQSHGKSLEWIGHIDPYYGDTSYNQKFRGKATLTVDKSSSTAYMQLKSLTSEDSAVYYCVKGGYYGHWYFDVWGAGTTVTVSSATTTAPSVYPLVP
VL: DIQMTQSPSSLSASLGERVSLTCRASQDIGSSLNWLQQGPDGTIKRLIYATSSLDSGVPKRFSGSRSGSDYSLTISSLESEDFVDYYCLQYVSSPPTFGAGTKLELKRADAAPTVFIFGRIP
anti-tumor effects (tumors): caused tumor vascular injury, localized thrombosis, tumor necrosis and retarded tumor growth
toxicity (tumors): no evidence of toxicity
binding to phospholipids in standard ELISA (PS [5]): bound to PS, CL, PI (phosphatidylinositol), PA (phosphatidic acid) and PG (phosphatidylglycerol)
binding to neutral phospholipids PC, SM or PE [6]: no detectable binding
reaction with neutral phospholipids, PC and SM [7]: did not react
antibody concentration at maximum relative binding to PS on cells [8]: 80 nM
molar ratio of β2GPI to antibody for optimal antibody binding [8]: between 0.125, 0.5 and 2
β2GPI to antibody ratio at maximum relative binding ([8]; antibody 80 nM): 0.5
binding to anionic phospholipids (PS, PI, PA, PG, CL) (PS [9]): bind strongly to anionic phospholipids
β2GPI domain bound (β2GPI): bind to β2GPI at domain II

B2: Human Plasmin-free β2GPI (protein, UniProt P02749 20-345, looked up)
Beta-2-glycoprotein 1: T1 sequence (P02749 20-345)
modifications: plasmin-free
Conc. (ng/mL) read out in Functional β2GPI Assay (functional β2GPI): 136.42 ng/mL
